These results are taken from patent US7799907B2, “Method for the preparation of 2′-deoxy-2′,2′-difluorocytidine” (Hanmi Pharm. Co., Ltd, priority 2004, dated 2010).

This series is described as follows: Stability of moisture content of the hemihydrate and dihydrate forms on storage. It counts as physicochemical. The note with it: for stability for the moisture content changes: under the conditions shown in Table 1.
The mark [1] stands for this setting: 40° C. under 75% relative humidity, 1 day.
The mark [2] stands for this setting: 40° C. under 75% relative humidity, 7 days.
The mark [3] stands for this setting: 40° C. under 75% relative humidity, 14 days.

Regarding “2′-Deoxy-2′,2′-difluorocytidine hemihydrate”, the “stability for the moisture content changes” value was “stable”. In addition, the “Moisture content (%)” value under setting [1] amounted to 3.7%. Also, the “Moisture content (%)” value under setting [2] was found to be 3.8%. Moreover, under setting [3], the “Moisture content (%)” value worked out at 3.8%. In addition, the “Moisture content (%)” value (Air, 1 day) turned out to be 3.6%. The “Moisture content (%)” value (Air, 7 days) is 3.7%. Besides, the “Moisture content (%)” value (Air, 14 days) came out at 3.4%.

In the case of `Nc1ccn([C@@H]2O[C@H](CO)[C@@H](O)C2(F)F)c(=O)n1.O.O` [Dihydrate, 2′-Deoxy-2′,2′-difluorocytidine dihydrate], the “stability for the moisture content changes” value was “stable”. The “Moisture content (%)” value under setting [1] was 12.1%. In addition, under setting [2], the “Moisture content (%)” value is recorded as 11.9%. Besides, the “Moisture content (%)” value under setting [3] is 11.7%. For the setting “Air, 1 day”, the “Moisture content (%)” value was 11.6%. Further, for the setting “Air, 7 days”, the “Moisture content (%)” value came to 11.8%. Besides, where the note is “Air, 14 days”, the “Moisture content (%)” value is reported as 11.7%.
